In ChEMBL document CHEMBL1201862, “PubChem BioAssay data set” (2004):
Each block holds one compound with its values, some of them ahead of it. Calls of active or inactive are those of the source. Unless noted, no cut-off for these calls is given here.

Columns and labels:
[1] = target: Sphingosine 1-phosphate receptor 1 (Homo sapiens, UniProt P21453); assay: Fluorescence-based counterscreen assay for S1P4 agonists: Cell-based dose response high throughput screening assay to identify agonists of the Sphingosine 1-Phosphate Receptor 1 (S1P1). [Related pubchem assays (depositor defined):AID1509, AID1523, AID1801, AID463107, AID463118, AID463119, AID463122, AID463123, AID463129, AID463225, AID504400, AID504460]; type: functional
[2] = target: T1, Sphingosine 1-phosphate receptor 4 (Homo sapiens, UniProt O95977); assay: Fluorescence dose response cell-based high throughput screening assay for agonists of the Sphingosine 1-Phosphate Receptor 4 (S1P4). [Related pubchem assays: 1509 (Primary screen.), 1523 (Confirmation screen in triplicates.)]; type: functional
T1 sequence (O95977 whole entry): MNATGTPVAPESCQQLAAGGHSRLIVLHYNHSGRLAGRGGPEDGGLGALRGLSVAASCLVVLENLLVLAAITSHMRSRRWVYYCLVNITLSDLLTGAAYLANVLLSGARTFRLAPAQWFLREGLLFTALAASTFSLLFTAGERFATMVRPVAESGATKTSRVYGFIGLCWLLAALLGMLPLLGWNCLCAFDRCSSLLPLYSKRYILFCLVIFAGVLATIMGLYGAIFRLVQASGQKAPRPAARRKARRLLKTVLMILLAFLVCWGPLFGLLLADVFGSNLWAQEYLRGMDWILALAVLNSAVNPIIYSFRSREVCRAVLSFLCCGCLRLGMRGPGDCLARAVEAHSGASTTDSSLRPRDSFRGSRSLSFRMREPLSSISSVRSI

[3] = target: Lysine-specific demethylase 4A (Homo sapiens, UniProt O75164); assay: inhibition of JMJD2A H3K9me3 demethylation – biochemical, DELFIA europium, cherry-picked samples, selectivity assay for GASC-1 inhibitor project, dose response (AID 488840)
[4] = target: T2, Lysine-specific demethylase 4C (Homo sapiens, UniProt Q9H3R0); assay: inhibition of JMJD2C H3K9me3 demethylation – biochemical, DELFIA europium, cherry-picked samples, dose response (AID 488835); type: functional
T2 sequence (Q9H3R0 whole entry): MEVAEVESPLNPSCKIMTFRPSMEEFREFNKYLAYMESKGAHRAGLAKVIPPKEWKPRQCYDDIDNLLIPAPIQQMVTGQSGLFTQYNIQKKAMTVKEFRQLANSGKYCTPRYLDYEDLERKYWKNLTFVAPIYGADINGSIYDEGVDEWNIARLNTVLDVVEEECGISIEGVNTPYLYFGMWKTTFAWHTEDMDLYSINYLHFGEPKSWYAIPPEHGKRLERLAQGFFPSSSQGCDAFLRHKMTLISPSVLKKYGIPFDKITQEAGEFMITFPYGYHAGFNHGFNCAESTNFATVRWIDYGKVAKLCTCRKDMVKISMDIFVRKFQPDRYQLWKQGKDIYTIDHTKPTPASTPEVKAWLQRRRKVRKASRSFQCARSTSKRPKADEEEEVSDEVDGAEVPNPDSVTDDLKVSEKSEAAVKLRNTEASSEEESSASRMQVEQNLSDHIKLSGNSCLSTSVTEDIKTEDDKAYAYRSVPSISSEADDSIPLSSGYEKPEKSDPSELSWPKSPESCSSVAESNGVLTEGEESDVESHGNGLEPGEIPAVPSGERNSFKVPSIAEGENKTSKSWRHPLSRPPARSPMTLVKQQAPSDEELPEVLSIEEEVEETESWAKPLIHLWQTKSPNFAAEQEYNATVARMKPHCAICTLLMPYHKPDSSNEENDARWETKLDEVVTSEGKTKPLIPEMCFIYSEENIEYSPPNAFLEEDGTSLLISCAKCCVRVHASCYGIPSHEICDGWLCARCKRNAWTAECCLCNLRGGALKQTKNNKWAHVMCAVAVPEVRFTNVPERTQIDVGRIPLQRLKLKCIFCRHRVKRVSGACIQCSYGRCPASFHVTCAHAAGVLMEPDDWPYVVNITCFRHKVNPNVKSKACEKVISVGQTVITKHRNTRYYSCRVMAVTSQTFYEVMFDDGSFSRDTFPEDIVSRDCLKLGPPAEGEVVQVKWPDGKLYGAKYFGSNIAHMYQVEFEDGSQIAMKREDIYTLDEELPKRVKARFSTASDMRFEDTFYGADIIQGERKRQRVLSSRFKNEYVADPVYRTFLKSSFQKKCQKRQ

fMet-Leu-Phe receptor = target: T3, fMet-Leu-Phe receptor (Homo sapiens, UniProt P21462); assay: formyl peptide receptor binders – dose response (AID 519); type: functional
T3 sequence (P21462 whole entry): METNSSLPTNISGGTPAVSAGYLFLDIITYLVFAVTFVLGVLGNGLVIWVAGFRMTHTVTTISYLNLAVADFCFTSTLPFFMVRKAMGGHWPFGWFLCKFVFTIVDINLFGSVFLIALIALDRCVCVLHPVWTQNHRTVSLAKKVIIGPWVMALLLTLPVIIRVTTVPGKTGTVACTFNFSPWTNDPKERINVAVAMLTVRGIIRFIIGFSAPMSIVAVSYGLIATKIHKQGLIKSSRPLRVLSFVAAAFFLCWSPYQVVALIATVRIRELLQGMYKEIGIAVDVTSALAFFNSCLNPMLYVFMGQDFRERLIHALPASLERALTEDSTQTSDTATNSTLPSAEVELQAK

[5] = target: Nuclear receptor ROR-gamma (Homo sapiens, UniProt P51449); assay: LXR, FXR and VP16 reporter activity, cell-based, luciferase reporter, ROR modulator project, late-stage follow-up, panel member RORG (AID 2117)
[6] = target: Nuclear receptor ROR-alpha (Homo sapiens, UniProt P35398); assay: LXR, FXR and VP16 reporter activity, cell-based, luciferase reporter, ROR modulator project, late-stage follow-up, panel member RORA (AID 2117)
Mu-type opioid receptor [7] = target: T4, Mu-type opioid receptor (Homo sapiens, UniProt P35372); assay: SAR Analysis of Antagonists of the MOR Receptor using an Image-Based Assay - Set 2. [Related pubchem assays (depositor defined):AID1777, AID1785, AID1786, AID1966, AID2133, AID2136, AID2284, AID2285, AID2420]; type: functional
[8] = target: T5, Kappa-type opioid receptor (Homo sapiens, UniProt P41145); assay: SAR analysis of Antagonists of the Kappa Opioid Receptor (KOR) using an Image-Based Assay - Set 2. [Related pubchem assays (depositor defined):AID1777, AID1785, AID1786, AID1966, AID2133, AID2136, AID2284, AID2285, AID2348]; type: functional
Mu-type opioid receptor [9] = target: T4, Mu-type opioid receptor; assay: SAR Analysis of Agonists of the MOR Receptor using an Image-Based Assay - Set 2. [Related pubchem assays (depositor defined):AID1777, AID1785, AID1786, AID1966, AID2133, AID2136, AID2284, AID2285, AID2352]; type: functional
[10] = target: T5, Kappa-type opioid receptor; assay: SAR analysis of small molecule agonists of the kappa opioid receptor via a luminescent beta-arrestin assay - Set 2. [Related pubchem assays (depositor defined):AID1777, AID1785, AID1786, AID1966, AID2133, AID2136, AID2284, AID449737]; type: functional
[11] = target: T6, Delta-type opioid receptor (Homo sapiens, UniProt P41143); assay: SAR Analysis of Agonists of the DOR Receptor using an Image-Based Assay - Set 2. [Related pubchem assays (depositor defined):AID1777, AID1785, AID1786, AID1966, AID2133, AID2136, AID2284, AID2285, AID2370]; type: functional
[12] = target: T6, Delta-type opioid receptor; assay: SAR Analysis of Antagonists of the DOR Receptor using an Image-Based Assay - Set 2. [Related pubchem assays (depositor defined):AID1777, AID1785, AID1786, AID1966, AID2133, AID2136, AID2284, AID2285, AID2357]; type: functional
[13] = target: T5, Kappa-type opioid receptor; assay: kappa opioid receptor blockade potency – cell-based, luminescence, set 2, SAR follow-up (AID 2495); type: functional
[14] = target: T5, Kappa-type opioid receptor; assay: SAR analysis of Agonists of the Kappa Opioid Receptor (KOR) using an Image-Based Assay - Set 2. [Related pubchem assays (depositor defined):AID1777, AID1786, AID1966, AID2133, AID2136, AID2284, AID2285, AID2359]; type: functional

T5 sequence (P41145 whole entry): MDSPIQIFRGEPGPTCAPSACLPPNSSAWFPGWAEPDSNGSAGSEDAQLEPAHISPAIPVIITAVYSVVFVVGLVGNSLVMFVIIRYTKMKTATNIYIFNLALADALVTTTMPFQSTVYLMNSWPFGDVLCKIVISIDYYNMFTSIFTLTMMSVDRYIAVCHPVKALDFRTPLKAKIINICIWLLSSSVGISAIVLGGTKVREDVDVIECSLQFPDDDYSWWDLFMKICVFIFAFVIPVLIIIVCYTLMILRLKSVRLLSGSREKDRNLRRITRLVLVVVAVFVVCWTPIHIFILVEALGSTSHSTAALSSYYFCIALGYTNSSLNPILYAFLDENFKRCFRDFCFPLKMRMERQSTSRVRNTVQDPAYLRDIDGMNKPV
T6 sequence (P41143 whole entry): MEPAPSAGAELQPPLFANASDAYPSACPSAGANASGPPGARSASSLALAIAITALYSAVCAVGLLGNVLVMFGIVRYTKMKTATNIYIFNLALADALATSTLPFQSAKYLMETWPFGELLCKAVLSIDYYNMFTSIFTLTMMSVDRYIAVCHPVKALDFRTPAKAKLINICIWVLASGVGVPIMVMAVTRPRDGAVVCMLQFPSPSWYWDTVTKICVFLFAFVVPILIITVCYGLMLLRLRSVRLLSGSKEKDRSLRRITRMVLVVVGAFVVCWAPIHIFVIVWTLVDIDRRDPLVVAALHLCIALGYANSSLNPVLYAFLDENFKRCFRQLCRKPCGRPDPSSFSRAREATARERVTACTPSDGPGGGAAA
T4 sequence (P35372 whole entry): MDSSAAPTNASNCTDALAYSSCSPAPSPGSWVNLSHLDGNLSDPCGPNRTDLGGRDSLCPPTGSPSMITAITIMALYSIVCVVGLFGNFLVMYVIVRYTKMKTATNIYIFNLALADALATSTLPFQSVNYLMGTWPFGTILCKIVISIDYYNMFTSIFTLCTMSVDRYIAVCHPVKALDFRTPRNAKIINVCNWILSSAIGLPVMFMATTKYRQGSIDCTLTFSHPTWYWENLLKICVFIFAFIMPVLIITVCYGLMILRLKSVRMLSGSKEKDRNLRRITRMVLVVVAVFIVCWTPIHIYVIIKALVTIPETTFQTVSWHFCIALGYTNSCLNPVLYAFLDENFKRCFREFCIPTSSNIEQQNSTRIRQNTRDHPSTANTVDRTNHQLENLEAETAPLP
Sphingosine 1-phosphate receptor 1, sequence (P21453 whole entry): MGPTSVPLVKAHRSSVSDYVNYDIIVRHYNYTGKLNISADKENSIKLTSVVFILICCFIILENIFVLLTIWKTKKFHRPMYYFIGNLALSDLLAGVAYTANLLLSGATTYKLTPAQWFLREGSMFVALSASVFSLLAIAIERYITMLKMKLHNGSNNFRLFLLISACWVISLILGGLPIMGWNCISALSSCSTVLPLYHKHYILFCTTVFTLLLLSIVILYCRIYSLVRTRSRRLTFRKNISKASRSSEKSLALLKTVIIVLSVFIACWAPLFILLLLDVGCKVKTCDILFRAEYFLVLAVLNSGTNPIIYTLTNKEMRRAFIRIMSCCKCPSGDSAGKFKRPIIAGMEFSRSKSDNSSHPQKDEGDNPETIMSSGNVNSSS
Lysine-specific demethylase 4A, sequence (O75164 whole entry): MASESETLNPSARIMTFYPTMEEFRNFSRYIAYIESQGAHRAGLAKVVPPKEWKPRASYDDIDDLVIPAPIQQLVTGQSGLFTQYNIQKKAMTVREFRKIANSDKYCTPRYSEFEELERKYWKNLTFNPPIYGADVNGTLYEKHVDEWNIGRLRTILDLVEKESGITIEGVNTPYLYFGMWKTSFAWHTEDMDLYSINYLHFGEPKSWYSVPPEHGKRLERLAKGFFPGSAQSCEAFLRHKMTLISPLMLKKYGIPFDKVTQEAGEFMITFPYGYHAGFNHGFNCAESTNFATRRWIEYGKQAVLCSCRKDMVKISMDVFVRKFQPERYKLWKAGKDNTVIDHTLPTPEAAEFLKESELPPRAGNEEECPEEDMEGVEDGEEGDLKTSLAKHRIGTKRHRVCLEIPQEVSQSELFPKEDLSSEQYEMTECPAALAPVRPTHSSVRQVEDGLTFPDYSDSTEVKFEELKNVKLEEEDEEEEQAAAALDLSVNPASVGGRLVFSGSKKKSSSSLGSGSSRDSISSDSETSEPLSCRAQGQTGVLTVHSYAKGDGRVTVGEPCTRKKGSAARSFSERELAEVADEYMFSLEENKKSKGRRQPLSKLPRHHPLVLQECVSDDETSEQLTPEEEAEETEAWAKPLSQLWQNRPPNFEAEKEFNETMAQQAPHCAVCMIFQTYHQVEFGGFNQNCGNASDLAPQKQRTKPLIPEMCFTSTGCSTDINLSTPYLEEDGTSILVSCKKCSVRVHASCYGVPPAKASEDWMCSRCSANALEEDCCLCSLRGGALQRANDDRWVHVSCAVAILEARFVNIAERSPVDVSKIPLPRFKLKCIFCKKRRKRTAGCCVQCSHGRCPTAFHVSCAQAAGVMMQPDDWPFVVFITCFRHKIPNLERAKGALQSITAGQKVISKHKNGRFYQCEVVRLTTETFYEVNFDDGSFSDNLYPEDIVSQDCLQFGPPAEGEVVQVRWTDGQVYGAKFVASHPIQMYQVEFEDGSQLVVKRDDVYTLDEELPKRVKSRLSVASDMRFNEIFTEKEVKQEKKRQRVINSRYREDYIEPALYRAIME
Nuclear receptor ROR-alpha, sequence (P35398 whole entry): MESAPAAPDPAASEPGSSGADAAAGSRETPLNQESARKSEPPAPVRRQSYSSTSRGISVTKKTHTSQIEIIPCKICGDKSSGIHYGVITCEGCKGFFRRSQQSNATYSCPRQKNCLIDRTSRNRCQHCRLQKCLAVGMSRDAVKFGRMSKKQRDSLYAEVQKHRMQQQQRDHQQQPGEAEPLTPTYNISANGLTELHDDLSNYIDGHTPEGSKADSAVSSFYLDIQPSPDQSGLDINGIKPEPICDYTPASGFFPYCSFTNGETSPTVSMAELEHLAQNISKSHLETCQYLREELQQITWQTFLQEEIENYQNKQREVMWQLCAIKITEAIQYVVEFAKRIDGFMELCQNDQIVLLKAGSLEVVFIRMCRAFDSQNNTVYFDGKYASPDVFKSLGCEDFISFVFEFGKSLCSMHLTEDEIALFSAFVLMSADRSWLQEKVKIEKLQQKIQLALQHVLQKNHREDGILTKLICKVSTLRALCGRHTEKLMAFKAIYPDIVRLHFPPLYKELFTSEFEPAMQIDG
Nuclear receptor ROR-gamma, sequence (P51449 whole entry): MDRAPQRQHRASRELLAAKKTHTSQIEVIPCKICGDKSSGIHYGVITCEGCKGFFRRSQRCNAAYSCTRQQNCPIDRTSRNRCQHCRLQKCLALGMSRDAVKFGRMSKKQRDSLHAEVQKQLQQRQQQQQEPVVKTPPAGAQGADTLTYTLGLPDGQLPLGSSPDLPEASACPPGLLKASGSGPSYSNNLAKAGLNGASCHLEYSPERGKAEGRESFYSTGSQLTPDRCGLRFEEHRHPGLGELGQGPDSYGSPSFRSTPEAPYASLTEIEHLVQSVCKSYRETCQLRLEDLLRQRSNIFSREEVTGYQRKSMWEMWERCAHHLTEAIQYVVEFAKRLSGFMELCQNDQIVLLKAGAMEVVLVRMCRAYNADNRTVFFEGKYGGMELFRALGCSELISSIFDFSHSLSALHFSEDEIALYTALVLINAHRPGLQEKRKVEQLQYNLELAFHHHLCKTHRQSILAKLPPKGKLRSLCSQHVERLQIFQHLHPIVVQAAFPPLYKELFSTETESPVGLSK

EC50 [1]: 8.75 µM (active)
EC50 [2]: 4.06 µM (active)
Structure (SMILES): Cc1cccc(-n2c(=O)c(C#N)cc3c(=O)n4ccccc4nc32)c1

AC50 [3]: 6.55 µM (active)
AC50 [4]: 1.09 µM (active)
Ki (fMet-Leu-Phe receptor): > 66.7 µM (inactive)
Structure (SMILES): O=c1cc(N2CCc3ccccc32)[nH]c(=O)n1Cc1ccc(F)cc1

IC50 [5]: 1.94 µM (active)
IC50 [6]: 7.75 µM (active)
Structure (SMILES): O=S(=O)(Nc1ccc(C(O)(C(F)(F)F)C(F)(F)F)cc1)c1cccc2ccccc12

IC50 (Mu-type opioid receptor [7]): > 32 µM (inactive)
IC50 [8]: > 32 µM (inactive)
EC50 (Mu-type opioid receptor [9]): > 32 µM (inactive)
EC50 [10]: > 20 µM (inactive)
EC50 [11]: > 32 µM (inactive)
IC50 [12]: > 32 µM (inactive)
IC50 [13]: > 20 µM (inactive)
EC50 [14]: > 32 µM (inactive)
Structure (SMILES): CCc1ccc(S(=O)(=O)NCc2ccc(C(=O)NCCc3ccccc3)cc2)cc1
